Structures are written as SMILES.

The EC50 is the concentration at which the effect is half-maximal. Higher therefore signals a less potent agent.

One test addresses T1, human CYP11B2 (Homo sapiens, UniProt P19099).
T1 construct: expressed in transfected cells
T1 sequence (P19099 25-503): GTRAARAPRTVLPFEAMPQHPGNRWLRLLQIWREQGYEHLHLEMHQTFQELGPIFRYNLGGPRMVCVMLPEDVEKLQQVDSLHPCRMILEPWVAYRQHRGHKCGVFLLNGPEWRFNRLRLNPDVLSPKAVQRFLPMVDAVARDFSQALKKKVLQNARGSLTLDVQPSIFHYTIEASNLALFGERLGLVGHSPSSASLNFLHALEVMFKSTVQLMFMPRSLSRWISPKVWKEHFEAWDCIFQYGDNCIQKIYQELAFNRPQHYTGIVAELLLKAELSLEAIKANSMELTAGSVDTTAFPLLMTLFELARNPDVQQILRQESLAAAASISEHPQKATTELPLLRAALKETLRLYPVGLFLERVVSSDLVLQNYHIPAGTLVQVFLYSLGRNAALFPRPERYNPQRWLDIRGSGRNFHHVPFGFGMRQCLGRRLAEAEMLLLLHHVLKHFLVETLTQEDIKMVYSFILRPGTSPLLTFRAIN
Put plainly: G-402 cellular enzyme assay, human CYP11B2 (aldosterone release, HTRF). Type of test: cell-based. Particulars: G-402 cells, 1 μM Deoxycorticosterone. The procedure, abridged: (§1)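 Supernatant steroid product measured by HTRF (aldosterone for CYP11B2, cortisol for CYP11B1) after 16 h exposure of stably transfected G-402 cells to compound. Substrates were 1 μM deoxycorticosterone and 1 μM deoxycortisol, respectively; EC50 derived from a four-parameter MMF curve fit.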
(In general: In TR-FRET formats the signal depends on donor and acceptor labels being close together.)

The next test has as its target T2, human CYP11B1 (Homo sapiens, UniProt P15538).
T2 construct: expressed in transfected cells
T2 sequence (P15538 25-503): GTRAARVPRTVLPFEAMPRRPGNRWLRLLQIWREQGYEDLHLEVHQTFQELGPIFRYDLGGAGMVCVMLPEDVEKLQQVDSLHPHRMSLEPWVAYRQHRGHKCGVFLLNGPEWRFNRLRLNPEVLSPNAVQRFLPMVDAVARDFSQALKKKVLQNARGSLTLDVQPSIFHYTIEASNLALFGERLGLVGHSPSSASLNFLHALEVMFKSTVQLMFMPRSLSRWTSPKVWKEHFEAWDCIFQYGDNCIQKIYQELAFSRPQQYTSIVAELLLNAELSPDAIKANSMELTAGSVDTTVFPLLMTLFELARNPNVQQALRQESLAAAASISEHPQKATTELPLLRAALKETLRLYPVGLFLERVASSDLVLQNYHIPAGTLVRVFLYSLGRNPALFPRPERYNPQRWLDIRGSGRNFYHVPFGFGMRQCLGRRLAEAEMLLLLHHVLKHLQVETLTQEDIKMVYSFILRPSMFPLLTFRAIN
Put plainly: G-402 cellular enzyme assay, human CYP11B1 (cortisol release, HTRF). The test is classed as cell-based. Particulars: G-402 cells, 1 μM Deoxycortisol. The procedure, abridged:
as §1

With `O=C1c2ccc(Cl)cc2CN1c1cncc2c1CCC[C@@H]2O` [Example 340, 5-Chloro-2-((S)-8-hydroxy-5,6,7,8-tetrahydro-isoquinolin-4-yl)-2,3-dihydro-isoindol-1-one], the 50% effective concentration (EC50) at human CYP11B2 turned out to be 0.0883 µM; on human CYP11B1, 14.2 µM.

As for `CC(C)S(=O)(=O)NCc1cncc(N2CCc3cc(Cl)ccc3C2=O)c1` [Example 145, Propane-2-sulfonic acid [5-(6-chloro-1-oxo-3,4-dihydro-1H-isoquinolin-2-yl)-pyridin-3-ylmethyl]-amide], the EC50 stood at 1.5 µM at human CYP11B2 and 1.9 µM at human CYP11B1.

For the molecule `O=C1c2ccc(Cl)cc2CCN1c1cncc(-c2cccc(Cl)c2)c1` [Example 234, 6-Chloro-2-[5-(3-chloro-phenyl)-pyridin-3-yl]-3,4-dihydro-2H-isoquinolin-1-one], the 50% effective concentration (EC50) on human CYP11B2 was 0.0445 µM; on human CYP11B1, 1.58 µM.

In the case of `CS(=O)(=O)NCc1cncc(N2C(=O)c3ccc(F)cc3C23CC3)c1` [Example 404, N-{[5-(6′-Fluoro-3′-oxospiro [cyclopropane-1,1′-isoindol]-2′(3′H)-yl)pyridin-3-yl]methyl} methane-sulfonamide], the concentration giving a half-maximal response (EC50) on human CYP11B2 was found to be 0.298 µM; on human CYP11B1 it was 5.48 µM.

For the molecule `O=C1c2ccc(Cl)cc2CCN1c1cncc(CN2CCC(O)C2)c1` (stereo not drawn) [Example 146, 6-Chloro-2-[5-(3-hydroxy-pyrrolidin-1-ylmethyl)-pyridin-3-yl]-3,4-dihydro-2H-isoquinolin-1-one], the concentration giving a half-maximal response (EC50) at human CYP11B2 was 0.0398 µM; on human CYP11B1, 0.114 µM.

In the case of `O=C(Cc1cncc(N2CCc3cc(Cl)ccc3C2=O)c1)NCCO` [Example 264, 2-[5-(6-Chloro-1-oxo-3,4-dihydro-4H-isoquinolin-2-yl)-pyridin-3-yl]-N-(2-hydroxy-ethyl)-acetamide], the concentration giving a half-maximal response (EC50) at human CYP11B2 was found to be 0.843 µM; at human CYP11B1, 4.19 µM.

On to `COc1cncc(N2CCc3cc(Cl)ccc3C2=O)c1` [Example 10, 6-Chloro-2-(5-methoxy-pyridin-3-yl)-3,4-dihydro-2H-isoquinolin-1-one], for which the 50% effective concentration (EC50) amounted to 0.026 µM on human CYP11B2 and 0.822 µM at human CYP11B1.

Turning to `COC(=O)COc1cncc(N2CCc3cc(Cl)ccc3C2=O)c1` [Example 255, [5-(6-Chloro-1-oxo-3,4-dihydro-1H-isoquinolin-2-yl)-pyridin-3-yloxy]-acetic acid methyl ester], the concentration for a half-maximal effect (EC50) on human CYP11B2 stood at 2.8 µM; on human CYP11B1, 7.61 µM.

As for `CC1(COCc2cncc(N3CCc4cc(Cl)ccc4C3=O)c2)CC1` [Example 200, 6-Chloro-2-[5-(1-methyl-cyclopropylmethoxymethyl)-pyridin-3-yl]-3,4-dihydro-2H-isoquinolin-1-one], the EC50 was 0.0325 µM on human CYP11B2 and 0.315 µM on human CYP11B1.

For `O=C1c2ccc(Cl)cc2CCN1c1cncc(C(O)c2ccccc2)c1` (stereo not drawn) [Example 34, 6-Chloro-2-[5-(hydroxy-phenyl-methyl)-pyridin-3-yl]-3,4-dihydro-2H-isoquinolin-1-one], the results for the EC50 at human CYP11B2 and at human CYP11B1 were 0.0316 µM and 0.287 µM, respectively.

`CCC(=O)N1CCC(Oc2cncc(N3C(=O)c4ccc(Cl)cc4C3(C)C)c2)C1` (stereo not drawn) [Example 444, 5-Chloro-3,3-dimethyl-2-[5-(1-propionyl-pyrrolidin-3-yloxy)-pyridin-3-yl]-2,3-dihydro-isoindol-1-one]: the EC50 stood at 0.0084 µM at human CYP11B2 and 0.514 µM at human CYP11B1.

Regarding `CCC(=O)N[C@@H]1CCCc2c1cncc2N1C(=O)c2ccc(Cl)cc2[C@@H]1C` (single isomer, unassigned) [Example 359, N-[(R or S)-4-((S or R)-5-Chloro-3-methyl-1-oxo-1,3-dihydro-isoindol-2-yl)-5,6,7,8-tetrahydro-isoquinolin-8-yl]-propionamide], the half-maximal effective concentration (EC50) amounted to 0.006 µM on human CYP11B2 and 0.411 µM at human CYP11B1.

Consider `COCc1c(F)cncc1N1CCc2cc(Cl)ccc2C1=O` [Example 75, 6-Chloro-2-(5-fluoro-4-methoxymethyl-pyridin-3-yl)-3,4-dihydro-2H-isoquinolin-1-one], for which the concentration giving a half-maximal response (EC50) on human CYP11B2 was 0.166 µM; on human CYP11B1, 2.76 µM.

For the molecule `O=C1c2ccc(Cl)cc2CCN1c1cncc2cc[nH]c12` [Example 72, 6-Chloro-2-(1H-pyrrolo[3,2-c]pyridin-7-yl)-3,4-dihydro-2H-isoquinolin-1-one], the half-maximal effective concentration (EC50) on human CYP11B2 turned out to be 0.588 µM; on human CYP11B1, 16.5 µM.

As for `CC1(C)c2cc(Cl)ccc2C(=O)N1c1cncc(OC2CC2)c1` [Example 306, 5-Chloro-2-(5-cyclopropoxy-pyridin-3-yl)-3,3-dimethyl-2,3-dihydro-isoindol-1-one], the concentration giving a half-maximal response (EC50) was found to be 0.0058 µM at human CYP11B2 and 0.114 µM at human CYP11B1.

Take `O=C1c2ccc(Cl)cc2CCN1c1cncc(N2CCC[C@H]2CO)c1` [Example 135, 6-Chloro-2-[5-((S)-2-hydroxymethyl-pyrrolidin-1-yl)-pyridin-3-yl]-3,4-dihydro-2H-isoquinolin-1-one]: the half-maximal effective concentration (EC50) on human CYP11B2 was determined as 0.0931 µM; at human CYP11B1, 0.523 µM.

Consider `CN1CCN(Cc2cncc(N3CCc4cc(Cl)ccc4C3=O)c2)C1=O` [Example 159, 6-Chloro-2-[5-(3-methyl-2-oxo-imidazolidin-1-ylmethyl)-pyridin-3-yl]-3,4-dihydro-2H-isoquinolin-1-one], for which the EC50 is 0.209 µM on human CYP11B2 and 4.46 µM on human CYP11B1.

`CC1(C)c2cc(Cl)ccc2C(=O)N1c1cncc(CN2CCNC2=O)c1` [Example 411, 5-Chloro-3,3-dimethyl-2-[5-(2-oxo-imidazolidin-1-ylmethyl)-pyridin-3-yl]-2,3-dihydro-isoindol-1-one]: the figures for the concentration giving a half-maximal response (EC50) on human CYP11B2 and on human CYP11B1 were 0.0196 µM and 0.772 µM, respectively.

As to `CC(c1cncc(N2CCc3cc(Cl)ccc3C2=O)c1)n1cccn1` (stereo not drawn) [Example 271, 6-Chloro-2-[5-(1-pyrazol-1-yl-ethyl)-pyridin-3-yl]-3,4-dihydro-2H-isoquinolin-1-one], the figures for the concentration for a half-maximal effect (EC50) at human CYP11B2 and at human CYP11B1 were 0.0248 µM and 0.251 µM, respectively.

Turning to `CCC(=O)NC1CCc2c1cncc2N1Cc2cc(Cl)ccc2C1=O` (single isomer, unassigned) [Example 339, N-[(R or S)-4-(5-Chloro-1-oxo-1,3-dihydro-isoindol-2-yl)-6,7-dihydro-5H-[2]pyrindin-7-yl]-propionamide], the EC50 at human CYP11B2 turned out to be 0.0545 µM; on human CYP11B1, 7.99 µM.

Take `CCC(=O)N1CCCC(c2cncc(N3C(=O)c4ccc(Cl)cc4C3(C)C)n2)C1` (stereo not drawn) [Example 463, 5-Chloro-3,3-dimethyl-2-[6-(1-propionyl-piperidin-3-yl)-pyrazin-2-yl]-2,3-dihydro-isoindol-1-one]: the EC50 at human CYP11B2 was 0.0471 µM; on human CYP11B1 it was 0.932 µM.

With `O=C1c2ccc(Cl)cc2CCN1c1cncc(-c2cccc(C(F)(F)F)c2)c1` [Example 236, 6-Chloro-2-[5-(3-trifluoromethyl-phenyl)-pyridin-3-yl]-3,4-dihydro-2H-isoquinolin-1-one], the half-maximal effective concentration (EC50) stood at 0.133 µM on human CYP11B2 and 4.39 µM on human CYP11B1.

Turning to `CC1CN(c2cccnc2)C(=O)c2ccc(Cl)cc21` (stereo not drawn) [Example 105, 6-Chloro-4-methyl-2-pyridin-3-yl-3,4-dihydro-2H-isoquinolin-1-one], the results for the EC50 at human CYP11B2 and at human CYP11B1 were 0.382 µM and 4.49 µM, respectively.

On to `CC[C@@H]1c2cc(Cl)ccc2C(=O)N1c1cncc2c1CCC[C@@H]2NS(C)(=O)=O` (single isomer, unassigned) [Example 349, N-[(S or R)-4-((R or S)-5-Chloro-3-ethyl-1-oxo-1,3-dihydro-isoindol-2-yl)-5,6,7,8-tetrahydro-isoquinolin-8-yl]-methanesulfonamide], for which the EC50 on human CYP11B2 amounted to 0.982 µM; at human CYP11B1 it was 15.1 µM.

These data come from US9133158B2, “Bicyclic dihydroisoquinoline-1-one derivatives” (Hoffmann-La Roche Inc., priority 2011, dated 2015).
